Data taken from US12612380B2, “Non-lysosomal glucosylceramidase inhibitors and uses thereof” (ALECTOS THERAPEUTICS INC., priority 2019, dated 2026).

molecular target: T1, GBA2 (Homo sapiens, UniProt Q9HCG7); assay: Determination of IC50 values for inhibition of GBA2 in cell lysate; assay type: biochemical; set-up: host or cells: HEK293T (lentiviral transduction, puromycin selection); used as cellular homogenate; conditions: cellular homogenate of HEK293T cells overexpressing human GBA2, 250 μM 4-methylumbelliferone-β-D glucopyranoside, pH 5.5, 37° C., GCase inhibitor present; read-out: GBA2 IC50
T1 sequence (Q9HCG7 1-927): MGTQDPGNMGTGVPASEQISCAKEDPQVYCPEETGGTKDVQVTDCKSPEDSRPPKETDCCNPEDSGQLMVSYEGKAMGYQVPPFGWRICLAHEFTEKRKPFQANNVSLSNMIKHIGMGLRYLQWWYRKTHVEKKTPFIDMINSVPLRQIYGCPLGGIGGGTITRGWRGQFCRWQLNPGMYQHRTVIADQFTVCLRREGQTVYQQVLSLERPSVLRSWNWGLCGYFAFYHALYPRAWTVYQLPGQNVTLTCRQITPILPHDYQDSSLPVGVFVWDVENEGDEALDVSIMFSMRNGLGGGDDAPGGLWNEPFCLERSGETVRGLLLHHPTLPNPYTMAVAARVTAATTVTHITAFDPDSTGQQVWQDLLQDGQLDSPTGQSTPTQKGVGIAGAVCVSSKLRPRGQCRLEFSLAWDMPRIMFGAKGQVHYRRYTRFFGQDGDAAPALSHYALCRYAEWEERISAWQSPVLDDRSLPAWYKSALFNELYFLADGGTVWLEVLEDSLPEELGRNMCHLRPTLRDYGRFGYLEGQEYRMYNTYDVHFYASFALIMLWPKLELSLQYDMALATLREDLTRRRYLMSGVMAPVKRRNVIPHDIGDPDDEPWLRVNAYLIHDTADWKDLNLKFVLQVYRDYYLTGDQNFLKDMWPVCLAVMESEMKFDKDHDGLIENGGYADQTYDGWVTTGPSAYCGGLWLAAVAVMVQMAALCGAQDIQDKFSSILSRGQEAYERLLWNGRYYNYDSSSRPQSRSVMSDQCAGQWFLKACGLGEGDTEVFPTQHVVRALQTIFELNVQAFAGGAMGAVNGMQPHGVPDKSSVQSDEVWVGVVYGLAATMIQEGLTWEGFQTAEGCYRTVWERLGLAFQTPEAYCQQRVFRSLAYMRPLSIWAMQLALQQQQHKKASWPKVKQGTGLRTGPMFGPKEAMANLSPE
Text: Assay for Determination of IC50 Values for Inhibition of GBA2 in Cell Lysate
Stable GBA2-expressing HEK293T cells were generated as follows. The PCR-amplified human GBA2 (GBA2 nucleotide accession number BC011363) using the following primers: Sense 5′---CGCAAATGGGCGGTAGGCGTG (SEQ ID NO:2)---3′ and antisense 5′---TAGTCAGCCATGGGGCGGAGA (SEQ ID NO:3)---3′) was cloned into pLenti-GIII-CMV by ABM Inc. The correctness of the construct was verified by sequencing. Lentivirus particles containing GBA2 in the pLenti-GIII-CMV plasmid were prepared using a third Generation Virus Packaging Mix (ABM cat #LV053-G074) in HEK293T cells and supplied as a virus particle suspension. The virus suspension was used for infection of HEK293T cells. Cell populations stably expressing human GBA2 were selected using puromycin for several weeks as determined by activity assays and western blot.
Various concentrations of test compounds were prepared in DMSO and then diluted into buffer consisting of 100 mM citric acid, 200 mM disodium phosphate with 1% v/v C10E6, pH 5.5. Cellular homogenates (0.25 mg/mL) of the stable HEK293T-overexpressing GBA2 cell line were preincubated for 10 min on ice with an inhibitor of GCase (20 μM (6R,7R,8S)-8-ethyl-4-azaspiro[2.5]octane-6,7-diol). The reaction solution consisted of 20 μL of 750 μM 4-methylumbelliferone-β-D glucopyranoside in 5% DMSO in the same buffer, 20 μL of GBA2-cellular homogenate pre-treated with (6R,7R,8S)-8-ethyl-4-azaspiro[2.5]octane-6,7-diol and 20 μL of various concentrations of test compound in 10% DMSO in the same buffer. The final concentrations in the reaction were 0.083 mg/mL GBA2-cellular homogenate, 250 μM 4-methylumbelliferone-β-D glucopyranoside, and various concentrations of inhibitor. The inhibitor and GBA2-cellular homogenate were preincubated together for 5 min at 37° C. The reaction was initiated by addition of substrate and allowed to proceed for 20 min at 37° C. to assess GBA2 activity. Reactions were stopped by the addition of an equal volume (60 μL) of 0.5 M NaOH, 0.3 M glycine, pH 10.5. Fluorescence was measured on a Biotek Synergy H4 plate reader at wavelengths of 365 nm for excitation and 450 nm for emission. Incubations without added enzyme or added inhibitors were used to define no enzyme activity and maximal enzyme activity, respectively. IC50 values were determined by fitting the data to a log[inhibitor concentration] versus response curve using GraphPad Prism. IC50 values were calculated as the concentration of inhibitor required to inhibit GBA2 activity by 50%.

Row | Compound | IC50
1 | C[C@@H]1[C@@H](O)[C@H](O)[C@@H](O)CN1CC1CCCCC1 [Example 1, (2R,3R,4R,5S)-1-(cyclohexylmethyl)-2-methylpiperidine-3,4,5-triol] | 100 to 1000 nM
2 | C[C@@H]1[C@@H](O)[C@H](O)[C@@H](O)CN1CC1CCC(C)(C)CC1 [Example 2, (2R,3R,4R,5S)-1-((4,4-dimethylcyclohexyl)methyl)-2-methylpiperidine-3,4,5-triol] | 100 to 1000 nM
3 | C[C@@H]1[C@@H](O)[C@H](O)[C@@H](O)CN1CC1CCC(F)(F)CC1 [Example 3, (2R,3R,4R,5S)-1-((4,4-difluorocyclohexyl)methyl)-2-methylpiperidine-3,4,5-triol] | 1000 to 25000 nM
4 | C[C@@H]1[C@@H](O)[C@H](O)[C@@H](O)CN1CC1CCC(Cl)(Cl)CC1 [Example 4, (2R,3R,4R,5S)-1-((4,4-dichlorocyclohexyl)methyl)-2-methylpiperidine-3,4,5-triol] | < 100 nM
5 | C[C@@H]1[C@@H](O)[C@H](O)[C@@H](O)CN1C[C@H]1CC[C@H](C(C)(C)F)CC1 [Example 14, (2R,3R,4R,5S)-1-(((1r,4R)-4-(2-fluoropropan-2-yl)cyclohexyl)methyl)-2-methylpiperidine-3,4,5-triol] | < 100 nM
6 | C[C@@H]1[C@@H](O)[C@H](O)[C@@H](O)CN1C[C@H]1CCC[C@H](C(F)(F)F)C1 [Example 15, (2R,3R,4R,5S)-2-methyl-1-(((trans)-3-(trifluoromethyl)cyclohexyl)methyl)piperidine-3,4,5-triol] | < 100 nM
7 | C[C@@H]1[C@@H](O)[C@H](O)[C@@H](O)CN1C[C@H]1CCC[C@@H](C(F)(F)F)C1 [Example 16, (2R,3R,4R,5S)-2-methyl-1-(((cis)-3-(trifluoromethyl)cyclohexyl)methyl)piperidine-3,4,5-triol] | 100 to 1000 nM
8 | COCC1CCC(CN2C[C@H](O)[C@@H](O)[C@H](O)[C@H]2C)CC1 (stereo partly drawn) [Example 19, (2R,3R,4R,5S)-1-((4-(methoxymethyl)cyclohexyl)methyl)-2-methylpiperidine-3,4,5-triol] | 100 to 1000 nM

Continued, values first:

Row | IC50 | Compound
9 | < 100 nM | CCC1CCC(CN2C[C@H](O)[C@@H](O)[C@H](O)[C@H]2C)CC1 (stereo partly drawn) [Example 5, (2R,3R,4R,5S)-1-((4-ethylcyclohexyl)methyl)-2-methylpiperidine-3,4,5-triol]
10 | < 100 nM | C=C[C@H]1CC[C@@H](CN2C[C@H](O)[C@@H](O)[C@H](O)[C@H]2C)CC1 [Example 6, (2R,3R,4R,5S)-2-methyl-1-(((1s,4S)-4-vinylcyclohexyl)methyl)piperidine-3,4,5-triol]
11 | < 100 nM | CC(C)[C@H]1CC[C@H](CN2C[C@H](O)[C@@H](O)[C@H](O)[C@H]2C)CC1 [Example 8, (2R,3R,4R,5S)-1-(((1r,4R)-4-isopropylcyclohexyl)methyl)-2-methylpiperidine-3,4,5-triol]
12 | < 100 nM | C[C@@H]1[C@@H](O)[C@H](O)[C@@H](O)CN1C[C@H]1CC[C@H](C(C)(C)C)CC1 [Example 10, (2R,3R,4R,5S)-1-(((1r,4R)-4-(tert-butyl)cyclohexyl)methyl)-2-methylpiperidine-3,4,5-triol]
13 | 1000 to 25000 nM | CO[C@H]1CC[C@@H](CN2C[C@H](O)[C@@H](O)[C@H](O)[C@H]2C)CC1 [Example 17, (2R,3R,4R,5S)-1-(((1s,4S)-4-methoxycyclohexyl)methyl)-2-methylpiperidine-3,4,5-triol]
14 | 1000 to 25000 nM | CO[C@H]1CC[C@H](CN2C[C@H](O)[C@@H](O)[C@H](O)[C@H]2C)CC1 [Example 18, (2R,3R,4R,5S)-1-(((1r,4R)-4-methoxycyclohexyl)methyl)-2-methylpiperidine-3,4,5-triol]
15 | < 100 nM | C[C@@H]1[C@@H](O)[C@H](O)[C@@H](O)CN1C[C@H]1CC[C@H](C2CC2)CC1 [Example 21, (2R,3R,4R,5S)-1-(((1r,4R)-4-cyclopropylcyclohexyl)methyl)-2-methylpiperidine-3,4,5-triol]
16 | < 100 nM | C[C@@H]1[C@@H](O)[C@H](O)[C@@H](O)CN1CC1CCC(c2ccccc2)CC1 (stereo partly drawn) [Example 22, (2R,3R,4R,5S)-2-methyl-1-((4-phenylcyclohexyl)methyl)piperidine-3,4,5-triol]
